What all share (assay): Methyltransferase selectivity assay (filter-based, nucleosome substrate)
What all share (assay type): biochemical

For one assay, the target named is T1, NSD3 (Homo sapiens, UniProt Q9BZ95).
T1 construct: purchased Structural Genomics Consortium (SGC Toronto) in-house methyltransferase panel
T1 sequence (Q9BZ95 1-1437): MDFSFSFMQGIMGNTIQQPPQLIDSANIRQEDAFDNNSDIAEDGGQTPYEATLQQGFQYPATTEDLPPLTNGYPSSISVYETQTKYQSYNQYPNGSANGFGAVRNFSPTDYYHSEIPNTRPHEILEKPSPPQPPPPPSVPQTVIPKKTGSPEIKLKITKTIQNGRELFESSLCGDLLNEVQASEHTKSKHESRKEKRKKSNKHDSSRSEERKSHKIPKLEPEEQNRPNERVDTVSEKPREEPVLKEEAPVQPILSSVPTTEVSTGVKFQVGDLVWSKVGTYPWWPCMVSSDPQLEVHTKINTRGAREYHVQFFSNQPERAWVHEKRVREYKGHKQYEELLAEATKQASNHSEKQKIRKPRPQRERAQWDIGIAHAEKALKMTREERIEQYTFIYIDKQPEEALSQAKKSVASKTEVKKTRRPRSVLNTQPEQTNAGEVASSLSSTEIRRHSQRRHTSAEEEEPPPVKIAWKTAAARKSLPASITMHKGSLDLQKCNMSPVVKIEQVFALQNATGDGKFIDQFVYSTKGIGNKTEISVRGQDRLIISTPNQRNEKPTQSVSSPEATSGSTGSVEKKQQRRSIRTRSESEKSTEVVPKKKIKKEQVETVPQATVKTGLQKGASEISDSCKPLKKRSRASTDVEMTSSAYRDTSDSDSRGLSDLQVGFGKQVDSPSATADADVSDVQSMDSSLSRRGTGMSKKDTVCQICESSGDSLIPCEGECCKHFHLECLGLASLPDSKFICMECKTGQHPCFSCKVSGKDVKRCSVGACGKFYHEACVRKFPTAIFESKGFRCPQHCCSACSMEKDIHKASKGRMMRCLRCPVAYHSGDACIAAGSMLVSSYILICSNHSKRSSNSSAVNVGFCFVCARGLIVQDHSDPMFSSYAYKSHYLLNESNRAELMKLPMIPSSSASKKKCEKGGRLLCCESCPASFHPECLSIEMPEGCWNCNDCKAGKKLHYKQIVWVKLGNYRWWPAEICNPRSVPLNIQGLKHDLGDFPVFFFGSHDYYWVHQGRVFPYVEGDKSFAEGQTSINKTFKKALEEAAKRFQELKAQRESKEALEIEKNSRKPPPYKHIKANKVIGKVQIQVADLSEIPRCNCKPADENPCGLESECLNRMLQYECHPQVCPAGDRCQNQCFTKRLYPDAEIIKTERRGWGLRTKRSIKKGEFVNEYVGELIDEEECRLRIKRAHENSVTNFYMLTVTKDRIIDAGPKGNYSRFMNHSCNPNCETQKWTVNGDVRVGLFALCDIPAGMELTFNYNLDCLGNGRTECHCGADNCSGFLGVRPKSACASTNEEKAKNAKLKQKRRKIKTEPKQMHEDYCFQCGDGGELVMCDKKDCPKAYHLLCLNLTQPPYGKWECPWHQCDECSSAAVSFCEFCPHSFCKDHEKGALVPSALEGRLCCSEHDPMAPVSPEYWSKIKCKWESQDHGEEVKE
Conditions: for activity at 1 µM: 1µM compound; for activity at 10 µM / Activity %: 10µM compound; for Activity %: Exp1, Exp2, 10 µM. The method, then:
(§1) Selectivity against methyltransferases were determined as described previously. Details of the assays are described in the supplementary methods.
(§2) Methyltransferase selectivity assay1
(§3) The effect of chemical probes and negative controls on the methyltransferase activities of protein, DNA and RNA methyltransferases was tested by radiometric assays using 3H-SAM. […]
(§4) The CPM in the absence of compound or enzyme was defined as 100% activity and background (0%), respectively, for each dataset. […]
(§5) For proteins which were tested with nucleosome as substrate such as DOT1L, NSD1, NSD2, NSD3, and ASH1L, or unbiotinylated Poly(2′-deoxyinosinic-2′-deoxycytidylic acid) (Cat# 81349-500UG, Sigma Aldrich) such as DNMT3A/3L, and DNMT3B/3L, a filter-based assay was used. In this assay, a trichloroacetic acid (TCA) protein precipitation protocol was employed. A 10 µL reaction mixture was incubated at 23°C for 1 h, followed by addition of 50 µL of 10% TCA. The mixture was transferred to filter plates (Millipore, Billerica, MA, USA) that were centrifuged at 2000 rpm (Allegra X-15R; Beckman Coulter, Brea, CA, USA) for 2 min. Samples were washed twice with 10% TCA and once with ethanol (180 µL), and centrifuged. After drying, 100 µL MicroScint-O (Perkin Elmer) was added to each well and the plates were centrifuged to remove the liquid. A 70 µL volume of MicroScint-O was added and the CPM was measured with a TopCount plate reader.

The next assay has as its target T2, ASH1L (Homo sapiens, UniProt Q9NR48).
T2 construct: purchased Structural Genomics Consortium (SGC Toronto) in-house methyltransferase panel
On the procedure:
as §1, §2, §3, §4, §5

The target in a further assay is T3, NSD1 (Homo sapiens, UniProt Q96L73).
T3 construct: purchased Structural Genomics Consortium (SGC Toronto) in-house methyltransferase panel
On the procedure:
as §1, §2, §3, §4, §5

The target of a further assay is T4, DOT1L (Homo sapiens, UniProt Q8TEK3).
T4 construct: purchased Structural Genomics Consortium (SGC Toronto) in-house methyltransferase panel
On the procedure:
as §1, §2, §3, §4, §5

Setting [1] is: 10µM compound, Exp1, Exp2, 10 µM.
Setting [2] is: Exp1, Exp2, read-out: Activity %.
The mark [3] stands for this setting: 1µM compound, Exp1, Exp2, read-out: Activity %.
The mark [4] stands for this setting: 10µM compound, Exp1, Exp2, read-out: Activity %.

Structures are written as SMILES. Like-named read-outs stand apart in the source and are kept apart here.

T3 sequence (Q96L73 whole entry): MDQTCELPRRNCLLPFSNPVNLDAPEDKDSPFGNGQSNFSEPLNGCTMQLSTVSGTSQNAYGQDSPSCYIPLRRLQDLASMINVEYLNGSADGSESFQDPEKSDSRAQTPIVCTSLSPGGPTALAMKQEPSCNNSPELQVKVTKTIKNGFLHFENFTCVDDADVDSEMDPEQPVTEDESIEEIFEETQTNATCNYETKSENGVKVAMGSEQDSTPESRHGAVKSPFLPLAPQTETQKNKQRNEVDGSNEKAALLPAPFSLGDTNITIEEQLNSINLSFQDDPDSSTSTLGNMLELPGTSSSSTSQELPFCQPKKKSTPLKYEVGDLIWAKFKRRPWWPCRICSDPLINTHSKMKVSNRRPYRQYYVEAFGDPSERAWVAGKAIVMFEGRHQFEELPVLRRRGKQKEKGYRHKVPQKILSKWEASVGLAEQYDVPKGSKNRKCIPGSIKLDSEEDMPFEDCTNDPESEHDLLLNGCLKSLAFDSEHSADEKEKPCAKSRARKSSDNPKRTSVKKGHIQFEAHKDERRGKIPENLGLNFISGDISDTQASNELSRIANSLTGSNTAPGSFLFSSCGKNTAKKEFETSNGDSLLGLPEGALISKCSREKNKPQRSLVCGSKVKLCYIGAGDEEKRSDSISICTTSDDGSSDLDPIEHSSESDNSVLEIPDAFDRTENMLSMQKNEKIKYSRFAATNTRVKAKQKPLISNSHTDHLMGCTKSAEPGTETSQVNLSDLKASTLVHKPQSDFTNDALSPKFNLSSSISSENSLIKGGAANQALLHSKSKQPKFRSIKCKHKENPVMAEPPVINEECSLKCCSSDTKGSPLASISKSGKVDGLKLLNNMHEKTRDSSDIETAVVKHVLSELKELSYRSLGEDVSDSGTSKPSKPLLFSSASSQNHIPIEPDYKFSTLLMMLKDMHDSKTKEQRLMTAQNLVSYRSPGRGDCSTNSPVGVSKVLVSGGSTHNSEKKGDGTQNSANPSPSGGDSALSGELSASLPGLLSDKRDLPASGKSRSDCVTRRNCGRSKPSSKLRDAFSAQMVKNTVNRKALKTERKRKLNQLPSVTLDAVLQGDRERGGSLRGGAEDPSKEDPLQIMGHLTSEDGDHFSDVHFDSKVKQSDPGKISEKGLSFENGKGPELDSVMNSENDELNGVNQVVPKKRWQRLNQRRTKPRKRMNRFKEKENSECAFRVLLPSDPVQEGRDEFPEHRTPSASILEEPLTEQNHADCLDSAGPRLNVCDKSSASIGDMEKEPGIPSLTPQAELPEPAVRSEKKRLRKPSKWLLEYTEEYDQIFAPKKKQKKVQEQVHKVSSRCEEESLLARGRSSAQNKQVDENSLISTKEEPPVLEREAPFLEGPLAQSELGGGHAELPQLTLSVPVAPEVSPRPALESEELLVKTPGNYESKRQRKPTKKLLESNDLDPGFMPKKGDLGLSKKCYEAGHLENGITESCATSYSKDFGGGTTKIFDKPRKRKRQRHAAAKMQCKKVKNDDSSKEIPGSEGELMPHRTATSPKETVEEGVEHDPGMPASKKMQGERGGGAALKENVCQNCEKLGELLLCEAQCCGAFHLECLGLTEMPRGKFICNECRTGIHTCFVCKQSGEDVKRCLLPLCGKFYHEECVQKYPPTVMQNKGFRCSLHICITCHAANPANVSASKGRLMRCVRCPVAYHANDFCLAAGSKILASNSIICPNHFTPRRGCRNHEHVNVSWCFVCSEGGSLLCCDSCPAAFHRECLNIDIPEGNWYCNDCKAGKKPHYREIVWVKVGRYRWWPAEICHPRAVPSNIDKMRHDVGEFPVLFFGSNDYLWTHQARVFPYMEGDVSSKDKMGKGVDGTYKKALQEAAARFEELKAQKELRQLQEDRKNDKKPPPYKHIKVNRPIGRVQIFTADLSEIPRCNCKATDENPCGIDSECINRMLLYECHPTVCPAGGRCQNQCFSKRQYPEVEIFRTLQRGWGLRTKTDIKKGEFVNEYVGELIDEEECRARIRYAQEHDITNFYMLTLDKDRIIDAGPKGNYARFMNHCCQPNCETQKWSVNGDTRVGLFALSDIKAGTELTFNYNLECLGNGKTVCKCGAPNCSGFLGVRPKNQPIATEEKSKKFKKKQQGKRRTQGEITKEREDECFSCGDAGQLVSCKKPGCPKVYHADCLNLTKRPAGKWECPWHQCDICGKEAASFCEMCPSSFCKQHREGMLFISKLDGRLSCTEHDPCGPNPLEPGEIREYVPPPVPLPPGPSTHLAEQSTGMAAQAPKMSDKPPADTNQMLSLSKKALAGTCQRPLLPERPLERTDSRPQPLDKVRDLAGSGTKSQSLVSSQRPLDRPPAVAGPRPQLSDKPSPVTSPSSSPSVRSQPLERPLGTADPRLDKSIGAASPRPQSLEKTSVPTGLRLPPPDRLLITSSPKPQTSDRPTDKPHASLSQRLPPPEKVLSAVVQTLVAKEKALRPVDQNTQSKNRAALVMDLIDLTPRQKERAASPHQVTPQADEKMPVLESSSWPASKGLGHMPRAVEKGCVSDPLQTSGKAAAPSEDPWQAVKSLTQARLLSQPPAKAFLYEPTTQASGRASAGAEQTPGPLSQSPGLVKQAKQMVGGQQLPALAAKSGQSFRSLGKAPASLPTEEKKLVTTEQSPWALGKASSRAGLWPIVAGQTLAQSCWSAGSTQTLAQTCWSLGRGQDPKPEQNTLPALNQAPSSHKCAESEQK
T4 sequence (Q8TEK3 whole entry): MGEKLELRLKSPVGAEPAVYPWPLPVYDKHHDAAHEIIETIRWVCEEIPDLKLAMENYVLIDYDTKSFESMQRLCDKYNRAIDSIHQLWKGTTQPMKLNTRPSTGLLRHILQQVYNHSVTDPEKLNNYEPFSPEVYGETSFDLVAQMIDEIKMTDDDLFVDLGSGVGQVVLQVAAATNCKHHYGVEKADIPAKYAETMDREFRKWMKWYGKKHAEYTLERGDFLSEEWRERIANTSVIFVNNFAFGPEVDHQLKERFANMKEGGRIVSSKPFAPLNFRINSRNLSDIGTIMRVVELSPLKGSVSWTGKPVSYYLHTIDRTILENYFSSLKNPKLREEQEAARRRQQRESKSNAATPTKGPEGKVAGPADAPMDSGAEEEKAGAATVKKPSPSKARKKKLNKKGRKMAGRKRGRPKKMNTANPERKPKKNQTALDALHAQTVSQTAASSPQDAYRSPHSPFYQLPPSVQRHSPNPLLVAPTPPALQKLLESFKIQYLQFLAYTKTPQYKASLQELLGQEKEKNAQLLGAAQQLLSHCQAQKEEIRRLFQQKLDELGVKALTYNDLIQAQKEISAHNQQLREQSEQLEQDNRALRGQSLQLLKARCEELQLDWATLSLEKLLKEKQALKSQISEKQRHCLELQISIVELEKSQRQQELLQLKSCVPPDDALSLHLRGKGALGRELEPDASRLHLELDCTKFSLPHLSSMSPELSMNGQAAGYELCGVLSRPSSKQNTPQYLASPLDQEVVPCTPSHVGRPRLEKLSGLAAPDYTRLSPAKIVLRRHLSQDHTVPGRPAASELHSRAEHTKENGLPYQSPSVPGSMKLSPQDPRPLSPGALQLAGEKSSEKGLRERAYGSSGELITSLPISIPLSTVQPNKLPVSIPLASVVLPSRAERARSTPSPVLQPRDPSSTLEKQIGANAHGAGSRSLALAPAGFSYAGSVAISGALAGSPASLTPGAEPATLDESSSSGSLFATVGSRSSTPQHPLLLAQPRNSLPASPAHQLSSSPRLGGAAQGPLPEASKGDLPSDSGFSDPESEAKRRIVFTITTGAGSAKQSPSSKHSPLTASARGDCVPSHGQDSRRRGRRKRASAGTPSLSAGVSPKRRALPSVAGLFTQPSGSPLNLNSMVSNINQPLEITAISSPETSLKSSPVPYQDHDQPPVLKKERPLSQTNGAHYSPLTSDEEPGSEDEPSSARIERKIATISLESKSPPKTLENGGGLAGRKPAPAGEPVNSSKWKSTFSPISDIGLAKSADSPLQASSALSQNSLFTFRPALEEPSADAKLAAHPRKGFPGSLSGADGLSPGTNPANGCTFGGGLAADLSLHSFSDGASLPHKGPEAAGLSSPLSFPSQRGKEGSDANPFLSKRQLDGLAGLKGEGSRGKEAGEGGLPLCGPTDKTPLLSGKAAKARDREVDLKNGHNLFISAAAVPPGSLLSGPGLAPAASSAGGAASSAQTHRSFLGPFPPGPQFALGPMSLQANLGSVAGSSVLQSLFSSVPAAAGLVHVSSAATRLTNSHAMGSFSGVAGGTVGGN

As to `COc1cc(OC)cc(-c2noc(N3CCN(C)C4(CCN(c5ccccc5)CC4)C3)n2)c1` [MRK-740 -NC], the activity at 1 µM on NSD3 (Exp1, Exp2) stood at 97%; on ASH1L (1µM compound, Exp1, Exp2) it was 100%; on NSD1 (1µM compound, Exp1, Exp2), 103%; at DOT1L (1µM compound, Exp1, Exp2), 104%. Also, the activity at 10 µM on NSD3 (Exp1, Exp2) turned out to be 95%; on ASH1L (10µM compound, Exp1, Exp2) it was 99%; on NSD1 (10µM compound, Exp1, Exp2), 100%; on DOT1L (10µM compound, Exp1, Exp2), 100%. The Activity % is on record as 93% at NSD3; 98% at ASH1L (setting [1]); 99% at NSD1 (setting [1]); 102% on DOT1L (1µM compound, Exp1, Exp2, 1 µM); 99% on DOT1L (setting [1]).
For the molecule `COc1cc(OC)cc(-c2noc(N3CCN(C)C4(CCN(c5ccnc(C)c5)CC4)C3)n2)c1` [MRK-740], the activity at 1 µM on NSD3 (setting [2]) stood at 89%; at ASH1L (setting [3]), 113%; at NSD1 (setting [3]) it was 96%; at DOT1L (setting [3]) it was 98%. Besides, the Activity % at NSD3 was 99%; on ASH1L (1µM compound, Exp1, Exp2, 1 µM), 102%; on NSD1 (1µM compound, Exp1, Exp2, 1 µM), 97%; on NSD1 (setting [1]) it was 98%; on DOT1L (1µM compound, Exp1, Exp2, 1 µM) it was 100%. Moreover, the activity at 10 µM on NSD3 (setting [2]) was 95%; at ASH1L (setting [4]), 93%; on NSD1 (setting [4]), 106%; at DOT1L (setting [4]), 97%.
